“And” between values parts separate entries of the source, which are not always exact repeats. Equal entries are not always repeated. No end group written: not given here.
Columns and labels:
[1] = test system: rat bronchioles
Source text: The right and left main bronchi and their first order branches of specific pathogenfree (SPF) Balb/c mice (15–20 g; either sex), Hartley tricolour guinea-pigs (300–400 g; male) and Sprague-Dawley rats (200–350 g; either sex), all killed by either cervical dislocation or overdosed (i.p.) with sodium pentobarbitone, were cleared of surrounding connective tissue, nerves and blood vessels under a dissecting microscope and placed in cold, carbogenated (95% v/v O2,5% v/v CO2) Krebs solution (Kemp and Cocks, 1997). Human airway preparations (0.5–1 mm in external diameter) were dissected from lungs of cancer patients undergoing thoracotomy at The Royal Melbourne Hospital, Melbourne, Australia. The epithelium was removed from some bronchi either by mechanical abrasion of the luminal surface (guinea-pig) or by brief, gentle intraliminal flushing of the airways with Krebs containing 0.1% v/v Triton-X100 (mouse and rat). In each case, removal of the epithelium was verified histologically in 8 μm formalin-fixed, paraffin sections stained with haemotoxylin and eosin. Ring segments (approximately 2 mm long) of bronchi and bronchioles were mounted in Krebs (37° C.) on stainless steel wires (40 μm) in dual channel (5 ml) Mulvany-Halpern myographs (JP Trading, Aarhus, Denmark) to record changes in isometric force (Kemp and Cocks, 1997). After equilibration at a passive force between 0.2 g and 0.3 g, tissues were contracted to their maximum levels of active force (Fm.),) with acetylcholine (30 μM), thoroughly washed with Krebs and allowed to return to baseline. Various drugs or their vehicles were then added and 30 min later all tissues were contracted to approximately 40% Fmax with titrated concentrations of carbachol (10–500 nM). The L-type voltage-operated Ca^2+ channel inhibitor, nifedipine (0.3 μM) was added to all mouse and rat tissues after obtaining Fmax to control characteristic phasic contractile activity with carbachol.
All cumulative responses (relaxations and contractions) were normalised as percentages of the initial level of active force to carbachol. Results are presented as mean±s.e mean and pEC50 (sensitivity) values were calculated by fitting concentration-response curves to a four parameter logistic function (Kemp and Cocks, 1997) using Graphpad Prism (version 2.0). Statistical comparison of mean pEC50 and maximum response (Rmax) values were compared by two-tailed unpaired Student's t-tests or one way analysis of variance (ANOVA) with Tukey-Kramer's t-tests for multiple comparisons. P<0.05 was accepted as significant. Unless specified, all averaged data are from n>5 experiments.

[2] = test system: mice challenged with bacterial lipopolysaccharide; settings: 2 mg/kg or 20 mg/kg intranasal before LPS
Experimental: Mice were challenged with bacterial lipopolysaccharide (LPS; 10 μg/mouse) via intranasal administration under light halothane aneasthesia.
Three hours after receiving LPS, the mice were killed via an intraperitoneal injection of sodium pentabarbitone and the lungs were canulated and lavaged with 4×0.5 ml washes of phosphate buffered saline. The total number of cells retrieved by this procedure was determined with a haemocytometer. Differential counts of individual cell types were performed on cytospin preparations of the lavage fluid, stained with the conventional May-Grunwald/Giemsa blood stain. The total number of neutrophils in each sample was then calculated from the proportion of neutrophils in the cytospin preparations, as a proportion of the total number of cells retrieved.

[3] = test system: mouse trachea
Source text: Mice were killed by a lethal overdose of sodium pentobarbitone and the tracheae rapidly excised. The trachea was opened longitudinally through the ventral cartilage rings to make a fiat sheet. Each sheet of trachea was mounted between two perspex chambers so that the mucosal (luminal) and submucosal and bathed with warmed, oxygenated Krebs' solution, independently on each side. Electrodes in the chambers allowed recordings of transepithelial potential difference using an amplifier. The tissue was voltage clamped at 0 mV by passing a current from the amplifier via another set of electrodes in the chambers. The amount of current required to maintain voltage at 0 mV is defined as the short circuit current (Isc) and is conventionally used as a measure of all ionic fluxes across the preparation.
(§1) After an equilibration time of 30 min, compounds for testing and drugs to elucidate the mechanism of any changes in Isc to the test compounds were added to either side of the tracheal epithelium (ie to either bath). Compounds used for increasing Isc were PGE2, adenosine 5′-triphosphate (ATP), uridine 5′-triphosphate (UTP) and the PAR1-, PAR2- and PAR4-activating peptides, SFLLRN (SEQ ID NO:1) and SLIGRL (SEQ ID NO:2) and GYPGQY (SEQ ID NO:6), respectively. These stimulants were added cumulatively with controls for any time-dependent tachyphylaxis.

[4] = test system: anaesthetised rat
Experimental: Male Sprague-Dawley rats (8 weeks) were anaesthetised (xylazine 10 mg/kg, ketamine 100 mg/kg and 50 mg/kg each 30 min thereafter, i.p.) and cannulae were placed in the trachea, carotid artery and jugular vein. Spontaneous breathing was stopped by an intravenous injection of pancuronium bromide (0.4 mg/kg and 0.2 mg/kg each 30 min thereafter) and rats were ventilated (tidal volume 8 ml/kg at 90 breaths/min, SAR-830 ventilator, CWE Inc., Ardmore, USA). Breath-to-breath measurement of airway resistance (RD and dynamic compliance (Cdyn) were calculated from flow and transpulmonary pressure recordings (PMS800, Mumed, London, UK). Flow was measured over the tracheal cannula (Fleisch pneumotachograph, Lausanne, Switzerland) and transpulmonary pressure was measured with a differential pressure transducer, one end being connected to the outlet of the tracheal cannula, the other to an air-filled cannula inserted in the oesophagus. A rectal probe was used to monitor body temperature. Serotonin (5-HT; 0.3 mg/kg i.v.) was administered as a bolus dose at 5 min intervals until reproducible changes in RL and Cdyn were obtained. Prior to each 5-HT challenge, lungs were hyperinflated once (by delivering twice the tidal volume) to prevent and reverse atelecasis. […]

[5] = test system: guinea-pig taenia coli
Experimental: 2 cm strips of teania coil with intact Auerbach's plexus, but which had been stripped of the mucosa, were suspended in Kreb's solution under 1 g passive tension, and contracted with histamine (1 μM) to induce active tension.

[6] = test system: pig tracheal muscle strips; settings: contracted to approximately 30% maximal with carbachol
Experimental: Pig tracheal muscle strips of approximately 2 mm×2 mm in size and with mucosa were prepared by dissecting away overlying cartilage. Strips were suspended in Krebs solution under 1 g passive tension, and contracted to approximately 30% maximal contraction with carbachol (40 μM).

[7] = test system: human bronchial epithelium; settings: after amiloride
Experimental: Human airways were obtained from discarded sections of lungs of patients undergoing lobectomy operations at the Royal Melbourne Hospital, Melbourne, Australia usually for lung cancer. The dissection and set up were as described above for the mouse trachea.
as §1

[8] = test system: monkey small bronchi
Source text: The experimental details are similar to those for the mouse isolated bronchi. Briefly, approximately 2 mm long rings of small bronchi were mounted on wire hooks. In each trace, half log concentrations are not depicted for clarity.

[9] = test system: human distal colon
Experimental: Human distal colon strips obtained at bowel resection were suspended at 1 g passive isometric force and contracted with substance P (30 μM) to maintain a steady level of active tension.

Substance	Rmax [1]	pEC50 [1]	effect on LPS-induced neutrophil infiltration into the lungs [2]	increase in Isc in presence of indomethacin ([3]; cyclooxygenase inhibitor indomethacin)	change in Isc ([3]; luminally applied)	inhibition of 5-HT-induced changes in airway resistance (RL) and dynamic compliance (Cdyn) ([4]; 30 sec aerosol of 0.1 mg/ml solution)	duration of inhibition of bronchoconstriction to 5-HT ([4]; aerosol of 1 mg/ml)	inhibition of bronchoconstriction to 5-HT ([4]; aerosol of 1 mg/ml)	relaxation in presence of apamin ([5]; apamin (100 μM))	relaxation of taenia coli ([5]; contracted with histamine (1 μM))	relaxation of pig tracheal strip [6]	change in Isc [7]	effect on monkey small bronchi [8]	response of human distal colon [9]
SLIGRL-NH2 [SLIGRL—NH2]	67±5%	5.1±0.1 and 5.1±0.01	dose-dependent inhibition of the increase of neutrophil infiltration into the lungs	unaffected	rapid initial rise in Isc usually followed by some degree of recovery until a steady plateau was reached	50–70%	at least 45 min	complete inhibition	–	–	–	–	–	–
SFLLRN [SFLLRN—NH2]	–	–	–	–	–	–	–	–	inhibited	relaxed in response to TRAP in a concentration-dependent manner	slow onset, near maximal relaxation of the tissue comparable in extent to that induced by isoprenaline	increases in Ise	smooth muscle relaxing effects	relaxed in an apparently apaminin sensitive manner
